Results: US12459951B2, “Compounds that interact with RAS superfamily proteins for treatment of cancers, inflammatory diseases, rasopathies, and fibrotic disease” (SHY Therapeutics, LLC, priority 2022, dated 2025)

How the values were obtained:
[1] = system: Smad2/Smad3 phosphorylation; assay: Phospho-Smad2/3 Inhibition Assay (western blot), Panc-1; type: cell-based, human; settings: at 10 μM, Panc-1 pancreatic cancer cell line; starred symbols = activation
Outline: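 Panc-1 cells (KRas G12D), starved overnight in 0.5% FBS, treated 3 h at 37° C with compound at 10 μM final (0.3% DMSO) or serial dilutions for IC50, then stimulated with 10 ng/ml TGF-b1 for 1 h. Phospho-Smad2 (Ser465/467) and phospho-Smad3 (Ser423/425) detected by western blot.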

IL6 = assay: IL-6 Quantification Assay (ELISA), LPS-stimulated RAW 264.7; type: cell-based; parameters: inhibition: dose or concentration left out as unconfirmed; settings: Mus musculus, RAW264.7; read-out: IL-6: % inh.
KRas G12D mutant = assay: Ras GTP Binding Domain Inhibition Assay (Ras Superfamily Assay); settings: for KRas G12D mutant + SOS: % inh.: with SOS; for KRas G12D mutant: % inh.: without SOS
Outline: (§1)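 Ni-plate capture of His-tagged protein (10-30 μg/mL, o/n 4° C); cpd 20 μM or dilution series, 1% DMSO, 3 h RT ± Sos 556-1049 last h; 100 nM Cy-labelled GTP 45 min RT; 3× wash; fluorescence read.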

KRas wild type = assay: as above; settings: for KRas wild type + SOS: % inh.: with SOS; for KRas wild type: % inh.: without SOS
Outline: as §1

Rac-1 = target: T1, Rac-1 (Homo sapiens, UniProt P63000); assay: as above; settings: read-out: Rac-1: % inh.
T1 construct: made in house
Outline: as §1

SMILES | % inh of Smad2/3 phosphorylation in Panc-1 [1] | inhibition (IL6) | KRas G12D mutant + SOS: % inh. (KRas G12D mutant; at 20 μM) | KRas G12D mutant: % inh. (KRas G12D mutant; at 20 μM) | KRas wild type + SOS: % inh. (KRas wild type; at 20 μM) | KRas wild type: % inh. (KRas wild type; at 20 μM) | inhibition at 20 µM (Rac-1) | KRas G12D mutant + SOS: % inh. (KRas G12D mutant; 20 μM compound) | KRas G12D mutant: % inh. (KRas G12D mutant; 20 μM compound) | KRas wild type + SOS: % inh. (KRas wild type; 20 μM compound) | KRas wild type: % inh. (KRas wild type; 20 μM compound)
Cc1c(-c2ccn(C)n2)cn2nc(-c3nccn3C)nc(Nc3ccc(C(F)F)cn3)c12 [Compound 234, N-(5-(Difluoromethyl)pyridin-2-yl)-5-methyl-2-(1-methyl-1H-imidazol-2-yl)-6-(1-methyl-1H-pyrazol-3-yl)pyrrolo[2,1-f][1,2,4]triazin-4-amine] | D (D = 76-100% inhibition) | 1 to 24% | D (D = 76-100% inhibition) | D (D = 76-100% inhibition) | D (D = 76-100% inhibition) | C (C = 50-75% inhibition) | 76 to 100% | – | – | – | –
COc1ccnc(Nc2nc(-c3nccn3C)nn3cc(-c4cccnc4)c(-c4ccccc4)c23)c1 [Compound 196, N-(4-Methoxypyridin-2-yl)-2-(1-methyl-1H-imidazol-2-yl)-5-phenyl-6-(pyridin-3-yl)pyrrolo[2,1-f][1,2,4]triazin-4-amine] | C (C = 46-75% inhibition) | 75 to 100% | D (D = 76-100% inhibition) | D (D = 76-100% inhibition) | D (D = 76-100% inhibition) | D (D = 76-100% inhibition) | 76 to 100% | – | – | – | –
CO[C@H]1C[C@H](Nc2nc(-c3nccn3C)nn3cc(-c4ccccc4)c(-c4ccccc4)c23)C1 [Compound 203, N-((1r,3r)-3-Methoxycyclobutyl)-2-(1-methyl-1H-imidazol-2-yl)-5,6-diphenylpyrrolo[2,1-f][1,2,4]triazin-4-amine] | D (D = 76-100% inhibition) | 75 to 100% | 0 (0 = 0% inhibition) | 0 (0 = 0% inhibition) | 0 (0 = 0% inhibition) | 0 (0 = 0% inhibition) | 1 to 25% | – | – | – | –
CCNC(=O)c1c(-c2ccn(C)n2)cn2nc(-c3nccn3C)nc(Nc3cc(OC)ccn3)c12 [Compound 173, N-Ethyl-4-((4-methoxypyridin-2-yl)amino)-2-(1-methyl-1H-imidazol-2-yl)-6-(1-methyl-1H-pyrazol-3-yl)pyrrolo[2,1-f][1,2,4]triazine-5-carboxamide] | D* (D* = 76-100% activation) | 75 to 100% | – | – | – | – | 50 to 75% | C (C = 50-75% inhibition) | B (B = 26-49% inhibition) | D (D = 76-100% inhibition) | C (C = 50-75% inhibition)
COCCCNC(=O)c1c(-c2ccn(C)n2)cn2nc(-c3nccn3C)nc(N[C@H]3CC[C@H](OC)C3)c12 (racemic) [Compound 184, rac 4-(((1S,3S)-3-methoxycyclo-pentyl)amino)-N-(3-methoxypropyl)-2-(1-methyl-1H-imidazol-2-yl)-6-(1-methyl-1H-pyrazol-3-yl)pyrrolo[2,1-f][1,2,4]triazine-5-carboxamide] | B* (B* = 26-45% activation) | 25 to 49% | – | – | – | – | 1 to 25% | 0 (0 = 0% inhibition) | B (B = 26-49% inhibition) | A (A = 1-25% inhibition) | A (A = 1-25% inhibition)
